Source: patent publication US20060143718A1, “Transgenic animals for monitoring water quality” (priority 2000, published 2006)

Assays:
[1] = system: MRE constructs; assay: Transient transfection of LUC reporter constructs in zebrafish ZEM2S cells, MRE constructs; format: cell-based
[2] = system: AHRE reporter constructs; assay: Transient transfection of LUC reporter constructs in zebrafish ZEM2S cells, AHRE constructs; format: cell-based
[3] = cited from earlier work
[4] = system: EPRE constructs; assay: Transient transfection of LUC reporter constructs in zebrafish ZEM2S cells, EPRE constructs; format: cell-based

## [Cl][Cd][Cl] [CdCl2]
[1]
  concentration achieving maximal LUC activity: 30 µM

## Clc1cc2c(cc1Cl)Oc1cc(Cl)c(Cl)cc1O2 [TCDD, 2,3,7,8-tetrachlorodibenzo-p-dioxin]
[2]
  concentration achieving maximal LUC activity: 10 nM
[3]
  bioconcentration in fish: 100,000 fold
[3]; fish, in the food chain
  bioconcentration: > 100,000 times

## CC(C)(C)c1cc(O)ccc1O [tBHQ]
[4]
  concentration achieving maximal LUC activity: 10 µM
